Measured values taken from patent US6469067B1, “Combinations” (Novartis AG, priority 1999, dated 2002).

Test system: Dermanyssus gallinae
Assay: In vitro effect on Dermanyssus gallinae
Settings: single component; for activity in terms of preventing oviposition, component alone: at 0.32 and 10 ppm
Experimental: For the sake of simplicity, the chicken mite Dermanyssus gallinae is used. This is a good model for determining the effect on ticks.
In vitro Effect on Dermanyssus gallinae
The test is carried out with serial dilutions [avermectin component in concentrations of (32), 10, 3.2, 1.0, 0.32 to 0.0001 ppm; the 1-[4-chloro-3-(3-chlor-5-trifluoromethyl-2-pyridyloxy)phenyl]-3-(2,6-difluorobenzoyl)urea in concentrations of 100, 32, 10, 3.2, 1.0, 0.32 and 0.1 ppm]. For the test, the lowest concentration of one active substance is combined with the lowest concentration of the other active substance, and the limits of activity thus worked out. Ten fully engorged female mites of the genus Dermanyssus gallinae adhered to a plastic adhesive film are brought into contact with 50 μl of an aqueous suspension or emulsion of the test combination in question. After drying, the film is stuck onto a glass disc. This creates a kind of air bubble around each mite, the lower surface of which is formed by the glass disc and the upper surface by a bulging of the adhesive film. This bubble contains sufficient air for the mite to avoid suffocating. After 5 days, the effect of the test substance is evaluated with the aid of a stereomicroscope by assessing the effect on mortality, oviposition, egg quality, hatching rate, pupation rate, and development of protonymphs according to the following 4 criteria:
1) if 9 to 10 mites are dead, this indicates a lethal effect (characterised by M);
3) if 2 or more mites survive and produce eggs, but no larvae hatch from these eggs and no protonymphs develop, this indicates a development-inhibiting effect (H);
4)if 2 or more mites survive and lay the usual number of normal eggs, from which larvae hatch and develop into protonymphs, this indicates no activity (−).
In each test, two basic suspensions/emulsions (without active ingredient) and one suspension/emulsion with only one of each component are also tested in the corresponding concentrations.
The test is repeated three times with the following combinations and the results determined. The final result is given in Tables 1 to 3, whereby in the tables marked with a the combinations from the prior art are listed and in the tables marked with b the results of the combinations according to the invention are listed.

Compound | activity in terms of preventing oviposition, component alone | further results
O=C(NC(=O)c1c(F)cccc1F)Nc1ccc(Cl)c(Oc2ncc(C(F)(F)F)cc2Cl)c1 [B, 1-[4-chloro-3-(3-chloro-5-trifluoromethyl-2-pyridyloxy)phenyl]-3-(2,6-difluorobenzoyl)urea] | – | concentration up to which oviposition is prevented, component alone: 0.01 ppm
CO[C@H]1C[C@H](O[C@H]2[C@H](C)O[C@@H](O[C@@H]3/C(C)=C/C[C@@H]4C[C@@H](C[C@]5(C=C[C@H](C)[C@@H](C6CCCCC6)O5)O4)OC(=O)[C@@H]4C=C(C)[C@@H](O)[C@H]5OC/C(=C\C=C\[C@@H]3C)[C@]54O)C[C@@H]2OC)O[C@@H](C)[C@@H]1O [Doramectin] | full activity | –
CO/N=C1\C[C@]2(C[C@@H]3C[C@@H](C/C=C(\C)C[C@@H](C)/C=C/C=C4\CO[C@@H]5[C@H](O)C(C)=C[C@@H](C(=O)O3)[C@]45O)O2)O[C@H](/C(C)=C/C(C)C)[C@H]1C [Moxidectin] | full activity | –
O=C(NC(=O)c1c(F)cccc1F)Nc1cc(Cl)c(Oc2ncc(C(F)(F)F)cc2Cl)c(Cl)c1 [A, chlorfluazuron] | – | activity against Dermanyssus gallinae, component alone (all tested concentrations): no activity at any concentration
Ivermectin | full activity | –
